{"source": "patent US5288720A", "about": "“Angiotensin II receptor blocking 2,3,6 substituted quinazolinones” (American Cyanamid Company, priority 1993, dated 1994)", "key": {"[1]": {"biological_target": "T1, Angiotensin II Receptor (Bos taurus, UniProt P25104)", "T1 construct": "The brownish tissue forming the adrenal cortex is scraped off and finely minced with scissors before homogenization; from tissue; host or cells: beef adrenal cortex, microsomal membranes (100,000×g pellet); fresh glands from a local slaughter house (Maxwell-Cohen)", "T1 sequence (P25104 1-359)": "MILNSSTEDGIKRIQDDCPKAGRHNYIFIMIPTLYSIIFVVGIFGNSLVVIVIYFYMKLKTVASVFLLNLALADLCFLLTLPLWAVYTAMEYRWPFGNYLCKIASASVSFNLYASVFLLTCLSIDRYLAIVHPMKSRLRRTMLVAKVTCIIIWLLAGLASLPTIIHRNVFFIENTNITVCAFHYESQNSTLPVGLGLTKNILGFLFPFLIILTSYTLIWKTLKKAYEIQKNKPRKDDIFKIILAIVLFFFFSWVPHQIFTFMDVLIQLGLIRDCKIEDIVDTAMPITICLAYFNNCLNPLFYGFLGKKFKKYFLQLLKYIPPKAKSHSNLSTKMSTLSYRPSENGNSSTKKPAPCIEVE", "experiment": "Receptor Binding Assay: Binding of [^125 I](Sar^1,Ile^8)AngII to beef adrenal cortex membranes", "settings": "60 min, room temperature", "summary_of_the_method": "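Competition binding of [125I](Sar1,Ile8)AngII (2200 Ci/mmole) to bovine adrenal cortex membranes (100,000×g pellet) in 50.0 mM Tris.HCl, pH 7.2, 0.1 mM PMSF. Compounds were added in DMSO and incubated 60 min at room temperature, in triplicate. Bound ligand was filtered onto PEI-presoaked filters and gamma-counted, with nonlinear analysis.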"}, "[2]": {"test_system": "ANGIOTENSIN II VASOPRESSOR RESPONSE", "experiment": "AII Challenge: blockade of angiotensin II vasopressor response in conscious SHR", "format": "in vivo, rat (Conscious Male Okamoto-Aoki SHR)", "settings": "SHR n=2, 3 mg/kg i.v.", "summary_of_the_method": "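Conscious male Okamoto-Aoki SHR (16-20 weeks, ~330 g) cannulated in aorta and vena cava under local procaine; angiotensin II (human) 0.05 and 0.1 ug/kg i.v. given before and at 30-300 min after test compound i.v., i.p. or orally. Rise in systolic pressure (mmHg) expressed as % blockade versus each rat's predose response.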"}, "[3]": {"settings": "AII 0.05 mcg/kg IV, 30 min post dose"}, "[4]": {"settings": "AII 0.05 mcg/kg IV, 60 min post dose"}, "[5]": {"settings": "AII 0.05 mcg/kg IV, 90 min post dose"}, "[6]": {"settings": "AII 0.05 mcg/kg IV, 120 min post dose"}, "[7]": {"settings": "AII 0.05 mcg/kg IV, 180 min post dose"}, "[8]": {"settings": "AII 0.05 mcg/kg IV, 240 min post dose"}, "[9]": {"settings": "AII 0.05 mcg/kg IV, 300 min post dose"}, "[10]": {"settings": "AII 0.1 mcg/kg IV, 30 min post dose"}, "[11]": {"settings": "AII 0.1 mcg/kg IV, 60 min post dose"}, "[12]": {"settings": "AII 0.1 mcg/kg IV, 90 min post dose"}, "[13]": {"settings": "AII 0.1 mcg/kg IV, 120 min post dose"}, "[14]": {"settings": "AII 0.1 mcg/kg IV, 180 min post dose"}, "[15]": {"settings": "AII 0.1 mcg/kg IV, 240 min post dose"}, "[16]": {"settings": "AII 0.1 mcg/kg IV, 300 min post dose"}}, "note": "pIC50: −log10 of the molar value.", "data": [{"smiles": "CCCCc1nc2ccc(C(C)(O)C3CCCN(C)C3=O)cc2c(=O)n1Cc1ccc(-c2ccccc2-c2nn[nH]n2)cc1", "note": "(single isomer, unassigned; isomer 2) [Example 53, 2-Butyl-6-[1-hydroxy(1-methyl-2-oxo-3-piperidinyl)ethyl]-3-[[2'-(1H-tetrazol-5-yl)[1,1'-biphenyl]-4-yl]methyl]-4(3H)-quinazolinone isomer 2]", "values": [{"measurement": "pIC50", "setting": "[1]", "result": 7.27}, {"measurement": "% Inhibition of AII vasopressor response", "setting": "[2]; [3]", "result": 89, "unit": "%"}, {"measurement": "Average Change (systolic blood pressure response to AII)", "setting": "[2]; [3]", "result": 5, "unit": "mmHg"}, {"measurement": "% Inhibition of AII vasopressor response", "setting": "[2]; [4]", "result": 89, "unit": "%"}, {"measurement": "Average Change (systolic blood pressure response to AII)", "setting": "[2]; [4]", "result": 5, "unit": "mmHg"}, {"measurement": "% Inhibition of AII vasopressor response", "setting": "[2]; [5]", "result": 58, "unit": "%"}, {"measurement": "Average Change (systolic blood pressure response to AII)", "setting": "[2]; [5]", "result": 20, "unit": "mmHg"}, {"measurement": "% Inhibition of AII vasopressor response", "setting": "[2]; [6]", "result": 58, "unit": "%"}, {"measurement": "Average Change (systolic blood pressure response to AII)", "setting": "[2]; [6]", "result": 20, "unit": "mmHg"}, {"measurement": "% Inhibition of AII vasopressor response", "setting": "[2]; [7]", "result": 37, "unit": "%"}, {"measurement": "Average Change (systolic blood pressure response to AII)", "setting": "[2]; [7]", "result": 30, "unit": "mmHg"}, {"measurement": "% Inhibition of AII vasopressor response", "setting": "[2]; [8]", "result": 58, "unit": "%"}, {"measurement": "Average Change (systolic blood pressure response to AII)", "setting": "[2]; [8]", "result": 20, "unit": "mmHg"}, {"measurement": "% Inhibition of AII vasopressor response", "setting": "[2]; [9]", "result": 53, "unit": "%"}, {"measurement": "Average Change (systolic blood pressure response to AII)", "setting": "[2]; [9]", "result": 22.5, "unit": "mmHg"}, {"measurement": "% Inhibition of AII vasopressor response", "setting": "[2]; [10]", "result": 76, "unit": "%"}, {"measurement": "Average Change (systolic blood pressure response to AII)", "setting": "[2]; [10]", "result": 12.5, "unit": "mmHg"}, {"measurement": "% Inhibition of AII vasopressor response", "setting": "[2]; [11]", "result": 61, "unit": "%"}, {"measurement": "Average Change (systolic blood pressure response to AII)", "setting": "[2]; [11]", "result": 20, "unit": "mmHg"}, {"measurement": "% Inhibition of AII vasopressor response", "setting": "[2]; [12]", "result": 76, "unit": "%"}, {"measurement": "Average Change (systolic blood pressure response to AII)", "setting": "[2]; [12]", "result": 12.5, "unit": "mmHg"}, {"measurement": "% Inhibition of AII vasopressor response", "setting": "[2]; [13]", "result": 61, "unit": "%"}, {"measurement": "Average Change (systolic blood pressure response to AII)", "setting": "[2]; [13]", "result": 20, "unit": "mmHg"}, {"measurement": "% Inhibition of AII vasopressor response", "setting": "[2]; [14]", "result": 42, "unit": "%"}, {"measurement": "Average Change (systolic blood pressure response to AII)", "setting": "[2]; [14]", "result": 30, "unit": "mmHg"}, {"measurement": "% Inhibition of AII vasopressor response", "setting": "[2]; [15]", "result": 43, "unit": "%"}, {"measurement": "Average Change (systolic blood pressure response to AII)", "setting": "[2]; [15]", "result": 29.5, "unit": "mmHg"}, {"measurement": "% Inhibition of AII vasopressor response", "setting": "[2]; [16]", "result": 17, "unit": "%"}, {"measurement": "Average Change (systolic blood pressure response to AII)", "setting": "[2]; [16]", "result": 42.5, "unit": "mmHg"}]}]}
